Data on 31 molecules can be found in patent US10604523B2, “1-aryl-4-methyl-[1,2,4]triazolo[4,3-a]quinoxaline derivatives” (Janssen Pharmaceutica NV, priority 2011, dated 2020).

Assay [1] addresses T1, Human recombinant PDE2A (hPDE2A) (Homo sapiens, UniProt O00408).
T1 construct: made in house; host or cells: Sf9 insect cells (baculovirus)
Put plainly: In vitro assay PDE2A (SPA, 3H-cGMP). The format is biochemical. The conditions noted are these: read-out: pIC50 PDE2 (converted).
Experimental: Tested compounds were dissolved and diluted in 100% DMSO to a concentration 100 fold of the final concentration in the assay. Compound dilutions (0.4 μl) were added in 384 well plates to 20 μl of incubation buffer (50 mM Tris pH 7.8, 8.3 mM MgCl2, 1.7 mM EGTA). 10 μl of hPDE2A enzyme in incubation buffer was added and the reaction was started by addition of 10 μl substrate to a final concentration of 10 μM cGMP and 0.01 μCi ^3H-cGMP. The reaction was incubated for 45 minutes at room temperature. […] After sedimentation of the beads during 30 minutes the radioactivity was measured in a Perkin Elmer Topcount scintillation counter and results were expressed as cpm. For blanc values the enzyme was omitted from the reaction and replaced by incubation buffer. Control values were obtained by addition of a final concentration of 1% DMSO instead of compound.

The target of assay [2] is T2, Rat recombinant PDE10A (rPDE10A2) (Rattus norvegicus, UniProt Q9QYJ6).
T2 construct: made in house; host or cells: Sf9 insect cells (baculovirus)
T2 sequence (Q9QYJ6 1-794): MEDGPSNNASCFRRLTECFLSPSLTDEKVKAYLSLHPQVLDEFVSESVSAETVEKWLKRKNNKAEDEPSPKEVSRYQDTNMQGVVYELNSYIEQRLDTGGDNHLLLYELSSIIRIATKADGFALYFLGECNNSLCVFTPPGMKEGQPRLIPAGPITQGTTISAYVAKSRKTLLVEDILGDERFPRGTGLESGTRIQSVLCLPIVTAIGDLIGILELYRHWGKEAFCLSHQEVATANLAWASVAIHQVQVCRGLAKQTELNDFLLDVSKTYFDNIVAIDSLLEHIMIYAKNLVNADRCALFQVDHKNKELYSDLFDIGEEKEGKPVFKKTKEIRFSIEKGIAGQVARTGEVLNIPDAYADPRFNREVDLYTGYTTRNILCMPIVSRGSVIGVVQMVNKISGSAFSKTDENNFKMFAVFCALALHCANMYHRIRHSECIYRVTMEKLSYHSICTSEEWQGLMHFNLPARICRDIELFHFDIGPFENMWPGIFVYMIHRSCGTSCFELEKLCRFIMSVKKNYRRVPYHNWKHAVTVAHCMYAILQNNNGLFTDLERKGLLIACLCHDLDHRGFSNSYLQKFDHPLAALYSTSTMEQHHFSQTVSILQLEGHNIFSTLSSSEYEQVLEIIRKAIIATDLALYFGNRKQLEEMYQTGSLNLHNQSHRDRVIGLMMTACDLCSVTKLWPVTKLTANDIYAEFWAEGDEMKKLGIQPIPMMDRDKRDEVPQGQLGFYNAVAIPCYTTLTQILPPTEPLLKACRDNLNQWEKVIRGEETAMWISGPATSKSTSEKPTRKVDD
Put plainly: In vitro assay PDE10A (SPA, 3H-cAMP). Type of assay: biochemical. The settings on record: for IC50: read-out: PIC50 PDE10 (converted).

For assay [3], the system named is Apomorphine-induced agitation. Briefly: Reversal of Apomorphine-induced Agitation in Rats (APO). Type of assay: in vivo, rat. The conditions noted are these: for SC Dose at max effect / SC Max effect (cumulative agitation score over 60 min) / SC LAD (lowest active dose): subcutaneous route; for SC Max effect (cumulative agitation score over 60 min) / PO Max effect (cumulative agitation score over 60 min): apomorphine 1.0 mg/kg i.v.; for SC LAD (lowest active dose) / PO LAD (lowest active dose): lowest dose at which ≥67% tested animals respond.
Experimental: Apomorphine (1.0 mg/kg, i.v.)-induced agitation was scored every 5 min over the first hour after injection of apomorphine. The score system was: (3) pronounced, (2) moderate, (1) slight, and (0) absent. […] For the present purpose, the cumulative agitation score over the whole 60-min observation period was used as a measure to describe the maximum effect (Max effect).

The mark [4] stands for this setting: -log IC50 expressed in mol/L, rPDE10A2, 60 nM cAMP.

Where two headings read alike, the source gives them in different places.

T1 sequence (O00408 whole entry): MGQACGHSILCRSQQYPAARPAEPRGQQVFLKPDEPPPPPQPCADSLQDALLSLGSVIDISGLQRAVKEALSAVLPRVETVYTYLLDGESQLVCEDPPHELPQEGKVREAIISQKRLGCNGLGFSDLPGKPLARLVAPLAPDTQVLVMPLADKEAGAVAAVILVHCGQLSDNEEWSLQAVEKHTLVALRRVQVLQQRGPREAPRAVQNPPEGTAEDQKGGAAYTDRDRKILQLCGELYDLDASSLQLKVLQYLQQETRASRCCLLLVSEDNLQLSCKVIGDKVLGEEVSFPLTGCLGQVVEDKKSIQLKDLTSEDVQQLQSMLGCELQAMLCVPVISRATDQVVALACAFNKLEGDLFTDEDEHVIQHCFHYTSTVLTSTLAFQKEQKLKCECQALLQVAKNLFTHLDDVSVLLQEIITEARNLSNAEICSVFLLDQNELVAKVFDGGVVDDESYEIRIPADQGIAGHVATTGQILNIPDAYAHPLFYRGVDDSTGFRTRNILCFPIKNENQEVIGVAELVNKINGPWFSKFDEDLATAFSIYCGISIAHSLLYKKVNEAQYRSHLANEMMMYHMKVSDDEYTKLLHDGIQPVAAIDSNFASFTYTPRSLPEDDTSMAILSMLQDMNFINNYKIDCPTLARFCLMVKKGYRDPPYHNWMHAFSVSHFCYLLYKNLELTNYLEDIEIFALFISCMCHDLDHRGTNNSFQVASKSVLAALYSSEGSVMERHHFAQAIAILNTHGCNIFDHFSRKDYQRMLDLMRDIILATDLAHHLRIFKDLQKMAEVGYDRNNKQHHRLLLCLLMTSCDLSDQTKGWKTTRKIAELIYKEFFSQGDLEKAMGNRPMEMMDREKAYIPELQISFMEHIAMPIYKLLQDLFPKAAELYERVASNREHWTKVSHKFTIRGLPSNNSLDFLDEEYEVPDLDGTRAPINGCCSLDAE

Regarding `CCNC(=O)c1ccc2nc(C)c3nnc(-c4cccnc4OC)n3c2c1` [Compound B-123], the IC50 was 27.5 nM in assay [1] and 417 nM in assay [2].

`CCNC(=O)c1ccc2nc(C)c3nnc(-c4ccc(C)nc4)n3c2c1` [Compound B-182]: the IC50 was 240 nM in assay [1] and 4170 nM in assay [2].

As to `CCCCOc1ccc(Cl)c(-c2nnc3c(C)nc4ccc(CNCC5CC5)cc4n23)c1` [Compound B-152], the IC50 in assay [1] is 50.1 nM; in assay [2] it was 3890 nM.

In the case of `CCOCc1cncc(-c2nnc3c(C)nc4ccc(CN(C)C)cc4n23)c1` [Compound B-212], the figures for the IC50 in assay [1] and in assay [2] were 355 nM and 6170 nM, respectively.

Consider `Cc1nc2ccc(CO)cc2n2c(-c3ccccc3)nnc12` [Compound B-29, (4-Methyl-1-phenyl[1,2,4]triazolo[4,3-a]quinoxalin-8-yl)methanol], for which the IC50 in assay [1] was 44.7 nM; in assay [2] it was 380 nM.

Take `Cc1nc2ccc(CN3CCC(O)CC3)cc2n2c(-c3cc(OC(C)C)ccc3Cl)nnc12` [Compound B-136]: the IC50 was 31.6 nM in assay [1] and 1260 nM in assay [2].

Consider `CCCCOc1ccc(Cl)c(-c2nnc3c(C)nc4ccc(CN5CCN(C)CC5)cc4n23)c1` [Compound B-160], for which the figures for the IC50 in assay [1] and in assay [2] were 60.3 nM and 2450 nM, respectively.

For `CCCOc1ccc(Cl)c(-c2nnc3c(C)nc4ccc(OC[C@@H]5CCCN5)cc4n23)c1` [Compound B-161], the IC50 in assay [1] was 60.3 nM; in assay [2], 8710 nM.

As to `CCCCOc1cncc(-c2nnc3c(C)nc4ccc(CNCC5CC5)cc4n23)c1` [Compound B-156], the IC50 in assay [1] was 61.7 nM; in assay [2], 7940 nM.

Turning to `CCCCOc1cncc(-c2nnc3c(C)nc4ccc(CNC5CCC5)cc4n23)c1` [Compound B-155], the values for the IC50 in assay [1] and in assay [2] were 60.3 nM and 9120 nM, respectively.

Turning to `Cc1nc2ccc(C(N3CCOCC3)C(F)(F)F)cc2n2c(-c3ccccc3Cl)nnc12` (stereo not drawn) [Compound B-22, 1-(2-Chlorophenyl)-4-methyl-8-(2,2,2-trifluoro-1-morpholin-4-ylethyl) [1,2,4]triazolo[4,3-a]quinoxaline], the results for the IC50 in assay [1] and in assay [2] were 7.76 nM and 89.1 nM, respectively.

Turning to `Cc1nc2ccc(CN3CCOCC3)cc2n2c(-c3cncc(OCCCF)c3)nnc12` [Compound B-196], the IC50 in assay [1] was 64.6 nM; in assay [2] it was 8710 nM.

On to `Cc1nc2ccc(Oc3ccncc3)cc2n2c(-c3ccccc3Cl)nnc12` [Compound B-30, 1-(2-Chlorophenyl)-4-methyl-8-(pyridin-4-yloxy)[1,2,4]triazolo[4,3-a]quinoxaline], for which the IC50 is 5.75 nM in assay [1] and 24.5 nM in assay [2].

Turning to `Cc1ccncc1-c1nnc2c(C)nc3ccc(C(=O)C4CC4)cc3n12` [Compound B-24, Cyclopropyl [4-methyl-1-(4-methylpyridin-3-yl) [1,2,4]triazolo[4,3-a]quinoxalin-8-yl]methanone], the IC50 in assay [1] was 39.8 nM; in assay [2], 525 nM.

`CCOCc1cncc(-c2nnc3c(C)nc4ccc(CNC5CCC5)cc4n23)c1` [Compound B-213]: the IC50 is 372 nM in assay [1] and more than 10000 nM in assay [2].

`Cc1ncccc1-c1nnc2c(C)nc3ccccc3n12` [Compound B-174]: the IC50 in assay [1] is 138 nM.

For `Cc1nc2ccc(Br)cc2n2c(-c3cncc(OCC4CC4)c3)nnc12` [Compound B-125], the IC50 in assay [1] is 27.5 nM; in assay [2] it was 3090 nM.

For the molecule `CCCCOc1ccc(Cl)c(-c2nnc3c(C)nc4ccc(N5CCN(C)CC5)cc4n23)c1` [Compound B-26, 1-(5-Butoxy-2-chlorophenyl)-4-methyl-8-(4-methylpiperazin-1-yl) [1,2,4]triazolo-[4,3-a]quinoxaline], the IC50 was 17.4 nM in assay [1] and 1260 nM in assay [2].

As to `Cc1nc2ccccc2n2c(-c3cncc(Cl)c3)nnc12` [Compound B-183], in assay [1], the IC50 was 316 nM.

With `COC1CCN(Cc2ccc3nc(C)c4nnc(-c5ccccc5Cl)n4c3c2)CC1` [Compound B-93], the “PIC50 PDE10” value in assay [2] (setting [4]) is on record as 7.41. Besides, in assay [3], the SC Dose at max effect is 10 mg/kg, the “SC Max effect (cumulative agitation score over 60 min)” value worked out at 7 and the SC LAD (lowest active dose) turned out to be 10 mg/kg.

With `Cc1nc2ccc(CN3CCC(O)C3)cc2n2c(-c3ccccc3Cl)nnc12` (stereo not drawn) [Compound B-57], in assay [2], the IC50 was 18.2 nM. Also, in assay [3], the SC Dose at max effect turned out to be 10 mg/kg, the “SC Max effect (cumulative agitation score over 60 min)” value worked out at 22 and the SC LAD (lowest active dose) was more than 10 mg/kg.

In the case of `CCCOc1ccc(Cl)c(-c2nnc3c(C)nc4ccc(CN5CCOCC5)cc4n23)c1` [Compound B-72], in assay [2] (setting [4]), the “PIC50 PDE10” value was 6.49. Further, in assay [3], the SC Dose at max effect is 10 mg/kg, the “SC Max effect (cumulative agitation score over 60 min)” value amounted to 23 and the SC LAD (lowest active dose) was more than 10 mg/kg.

For the molecule `Cc1cncc(-c2nnc3c(C)nc4ccccc4n23)c1` [Compound B-177], the IC50 in assay [1] is 162 nM.

On to `CCOc1ccc(Cl)c(-c2nnc3c(C)nc4ccc(CN5CCOCC5)cc4n23)c1` [Compound B-70], for which the “PIC50 PDE10” value in assay [2] (setting [4]) came to 6.58. For the same molecule, in assay [3], the SC Dose at max effect turned out to be 10 mg/kg, the “SC Max effect (cumulative agitation score over 60 min)” value turned out to be 24 and the SC LAD (lowest active dose) was more than 10 mg/kg.

As for `Cc1nc2ccc(CN(C)C)cc2n2c(-c3ccccc3Cl)nnc12` [Compound B-107], in assay [2], the IC50 is 107 nM. For the same molecule, in assay [3], the SC Dose at max effect stood at 10 mg/kg, the “SC Max effect (cumulative agitation score over 60 min)” value was 20.5 and the SC LAD (lowest active dose) was more than 10 mg/kg.

For the molecule `Cc1nc2ccc(C(=O)NCc3ccccc3)cc2n2c(-c3ccccc3)nnc12` [Compound B-9, N-Benzyl-4-methyl-1-phenyl[1,2,4]triazolo[4,3-a]quinoxaline-8-carboxamide], in assay [2], the IC50 was 41.7 nM. For the same molecule, in assay [3], the PO Dose at Max Effect came out at 2.5 mg/kg, the “PO Max effect (cumulative agitation score over 60 min)” value stood at 22 and the PO LAD (lowest active dose) was more than 2.5 mg/kg.

Turning to `Cc1nc2ccc(CN3CCCC(O)C3)cc2n2c(-c3ccccc3Cl)nnc12` (stereo not drawn) [Compound B-62], the IC50 in assay [2] was 19.5 nM. Moreover, in assay [3], the SC Dose at max effect was determined as 10 mg/kg, the “SC Max effect (cumulative agitation score over 60 min)” value is 21 and the SC LAD (lowest active dose) is more than 10 mg/kg.

`Cc1nc2ccc(Br)cc2n2c(-c3ccccc3Cl)nnc12` [Compound B-3a, 8-Bromo-1-(2-chlorophenyl)-4-methyl[1,2,4]triazolo[4,3-a]quinoxaline]: the IC50 in assay [2] (setting [4]) is 43.7 nM. In addition, in assay [3], the PO Dose at Max Effect was found to be 10 mg/kg, the “PO Max effect (cumulative agitation score over 60 min)” value is reported as 22 and the PO LAD (lowest active dose) was more than 10 mg/kg.

For `Cc1nc2ccc(C(=O)NCCN3CCOCC3)cc2n2c(-c3ccccc3Cl)nnc12` [Compound B-36], the IC50 in assay [2] was 11.2 nM. In assay [3], the SC Dose at max effect came out at 10 mg/kg, the “SC Max effect (cumulative agitation score over 60 min)” value is given as 21 and the SC LAD (lowest active dose) was more than 10 mg/kg.

On to `Cc1nc2ccc(CN3CCCC(CO)C3)cc2n2c(-c3ccccc3Cl)nnc12` (stereo not drawn) [Compound B-110], for which the IC50 in assay [2] was 44.7 nM. For the same molecule, in assay [3], the SC Dose at max effect is 10 mg/kg, the “SC Max effect (cumulative agitation score over 60 min)” value amounted to 21 and the SC LAD (lowest active dose) was more than 10 mg/kg.

As for `Cc1nc2ccc(C(=O)NCc3ccccn3)cc2n2c(-c3ccccc3Cl)nnc12` [Compound B-35], in assay [2] (setting [4]), the IC50 is 8.32 nM. In assay [3], the PO Dose at Max Effect amounted to 10 mg/kg, the “PO Max effect (cumulative agitation score over 60 min)” value is 22 and the PO LAD (lowest active dose) was more than 10 mg/kg.
